Test results: US20180057505A1, “BICYCLIC HETEROARYL COMPOUNDS USEFUL AS INHIBITORS OF THE PAR-2 SIGNALING PATHWAY” (VERTEX PHARMACEUTICALS INCORPORATED, priority 2015, published 2018)

Assays:
Format in all cases: cell-based
[1] = system: UTP-stimulated Ca2+ response in HT-29 cells; assay: Ca FLIPR TETRA assay, ANTAGONIST mode, activator 0.6 μM UTP; conditions: Homo sapiens; HT-29 cells, activator 0.6 μM UTP
Outline: (§1)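 Inhibition of agonist-evoked calcium signals was measured in human HT-29 colon cells cultured overnight in 1% FBS McCoy's medium. Test compounds preincubated 30 min at r.t.; activators at final concentrations as stated for each readout.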

[2] = system: Thrombin-stimulated Ca2+ response in HT-29 cells; assay: Ca FLIPR TETRA assay, ANTAGONIST mode, activator 1 U/mL Thrombin; conditions: Homo sapiens; HT-29 cells, activator 1 U/mL Thrombin
Outline: as §1

PAR2 (HT-29 cells) [3] = molecular target: T1, PAR2 (HT-29 cells) (Homo sapiens, UniProt P55085); assay: Ca FLIPR TETRA assay, ANTAGONIST mode, activator 8 μM SLIGKV; conditions: HT-29 cells; activator 8 μM SLIGKV; Method A: maximal concentration of antagonist 0.1, 1 or 2 μM
T1 construct: host or cells: HT-29
T1 sequence (P55085 26-397): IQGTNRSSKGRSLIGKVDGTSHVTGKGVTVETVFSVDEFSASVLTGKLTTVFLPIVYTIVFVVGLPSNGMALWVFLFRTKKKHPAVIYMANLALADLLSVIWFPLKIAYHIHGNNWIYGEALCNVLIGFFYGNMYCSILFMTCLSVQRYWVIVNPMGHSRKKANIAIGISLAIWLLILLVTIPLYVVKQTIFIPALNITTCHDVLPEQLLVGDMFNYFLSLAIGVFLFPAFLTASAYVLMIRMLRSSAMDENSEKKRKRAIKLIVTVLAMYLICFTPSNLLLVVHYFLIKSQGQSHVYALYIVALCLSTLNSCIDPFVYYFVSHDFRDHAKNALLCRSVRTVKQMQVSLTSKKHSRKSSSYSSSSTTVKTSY
Outline: as §1

PAR2 (HT-29 cells) [4] = molecular target: T1, PAR2 (HT-29 cells); assay: Ca FLIPR TETRA assay, ANTAGONIST mode, activator 3.1 U/mL trypsin; conditions: HT-29 cells; activator 3.1 U/mL trypsin; Method A: maximal concentration of antagonist 0.1, 1 or 2 μM
Outline: as §1

| IC50 [1] [nM] | IC50 [2] [nM] | IC50 (PAR2 (HT-29 cells) [3]) [nM] | IC50 (PAR2 (HT-29 cells) [4]) [nM] | SMILES |
| --- | --- | --- | --- | --- |
| > 2000 | > 2000 | 2.8 | 4.6 | Cn1cnnc1N1CCN(C(=O)c2cc3nc(-c4ccc(Cl)c(F)c4)cc(C(C)(C)C)c3o2)C(C)(C)C1 [Example I-318] |
| > 2000 | > 2000 | 0.2 | 0.2 | CC(C)[C@@H](CC(=O)N1CCN(C(=O)c2cc3nc(C4CCC(C)(C)CC4)cc(C(C)(C)C)c3o2)C(C)(C)C1)C(=O)O [Example I-319] |
| > 2000 | > 2000 | 0.1 | 0.2 | CC(C)[C@@H](CC(=O)N1CCN(C(=O)c2cc3nc(-c4ccc(Cl)cc4)cc(C(C)(C)C)c3o2)C(C)(C)C1)C(=O)O [Example I-320] |
| > 2000 | > 2000 | 0.1 | 0.1 | CC(C)[C@@H](CC(=O)N1CCN(C(=O)c2cc3nc(-c4ccc(Cl)c(F)c4)cc(C(C)(C)C)c3o2)C(C)(C)C1)C(=O)O [Example I-321] |
| > 2000 | > 2000 | 0.2 | 0.4 | CC(C)(C)c1cc(-c2ccc(Cl)c(F)c2)nc2cc(C(=O)N3CCN(C(=O)CC4(C(=O)O)CCCC4)CC3(C)C)oc12 [Example I-324] |
| > 2000 | > 2000 | 20 | 20 | CC(C)(C)c1cc(-c2ccc(Cl)c(F)c2)nc2cc(C(=O)N3CCN(c4cccnc4)C(=O)C3(C)C)oc12 [Example I-325] |
| 2000 | 1800 | 0.4 | 0.7 | CC(C)[C@H](CC(=O)N1CCN(C(=O)c2cc3nc(-c4ccc(Cl)cc4)cc(C(C)(C)C)c3o2)C(C)(C)C1)C(=O)O [Example I-333] |
| > 2000 | > 2000 | 91 | 28.5 | CC(C)(C)c1cc(-c2ccc(Cl)c(F)c2)nc2cc(C(=O)N3CCC(=O)NCC3(C)C)oc12 [Example I-335] |
| > 2000 | > 2000 | 6.3 | 9.6 | CC(C)(C)c1cc(-c2ccc(Cl)c(F)c2)nc2cc(C(=O)N3CCNC(=O)CC3(C)C)oc12 [Example I-336] |
| > 2000 | > 2000 | 0.4 | 0.9 | CC(C)(C)c1cc(-c2ccc(Cl)cc2)nc2cc(C(=O)N3CCN(C(=O)CC4(C(=O)O)CCC4)CC3(C)C)oc12 [Example I-337] |
| > 2000 | > 2000 | 94 | 90 | Cn1nccc1S(=O)(=O)N1CCN(C(=O)c2cc3nc(-c4ccc(Cl)c(F)c4)cc(C(C)(C)C)c3o2)C(C)(C)C1=O [Example I-342] |
| 2100 | 1700 | 0.2 | 0.4 | CC(C)[C@H](CC(=O)N1CCN(C(=O)c2cc3nc(-c4ccc(Cl)c(F)c4)cc(C(C)(C)C)c3o2)C(C)(C)C1)C(=O)O [Example I-343] |
| > 2000 | > 2000 | 290 | 500 | CN(CC(=O)O)CC(=O)N1CCN(C(=O)c2cc3nc(-c4ccc(Cl)cc4)cc(C(C)(C)C)c3o2)C(C)(C)C1 [Example I-347] |
| > 2000 | > 2000 | 67 | 38 | CC(C)(C)c1cc(-c2ccc(Cl)c(F)c2)nc2cc(C(=O)N3CCN(c4ccnnc4)CC3(C)C)oc12 [Example I-348] |
| > 2000 | > 2000 | 5.1 | 9 | CC(C)(C)c1cc(-c2ccc(Cl)c(F)c2)nc2cc(C(=O)N3CCN(c4ncccc4C(=O)O)CC3(C)C)oc12 [Example I-351] |
| 2000 | > 2000 | 2.1 | 3.1 | Cc1ccc(C(=O)O)c(N2CCN(C(=O)c3cc4nc(-c5ccc(Cl)c(F)c5)cc(C(C)(C)C)c4o3)C(C)(C)C2)n1 [Example I-352] |
| > 2000 | > 2000 | 38 | 34 | CC(C)(C)c1cc(-c2ccc(Cl)c(F)c2)nc2cc(C(=O)N3CCN(S(C)(=O)=O)C(=O)C3(C)C)oc12 [Example I-353] |

The remaining lines, values behind:

| SMILES | IC50 [1] [nM] | IC50 [2] [nM] | IC50 (PAR2 (HT-29 cells) [3]) [nM] | IC50 (PAR2 (HT-29 cells) [4]) [nM] |
| --- | --- | --- | --- | --- |
| CC1(C)CCC(c2cc(C(C)(C)C)c3oc(C(=O)N4CCN(c5cn[nH]c5)C(=O)C4(C)C)cc3n2)CC1 [Example I-315] | > 2000 | > 2000 | 5.7 | 12 |
| CN1CCN(C(=O)c2cc3nc(C4CCC(C)(C)CC4)cc(C(C)(C)C)c3o2)C(C)(C)C1=O [Example I-317] | > 2000 | > 2000 | 8.2 | 10 |
| CC(C)(C)c1cc(-c2ccc(Cl)cc2)nc2cc(C(=O)N3CCC(=O)NCC3(C)C)oc12 [Example I-322] | > 2000 | > 2000 | 92 | 240 |
| CC(C)(C)c1cc(-c2ccc(Cl)cc2)nc2cc(C(=O)N3CCNC(=O)CC3(C)C)oc12 [Example I-323] | > 2000 | > 2000 | 12 | 18 |
| CC(C)(C)c1cc(-c2ccc(Cl)cc2)nc2cc(C(=O)N3CCN(c4cccnc4)C(=O)C3(C)C)oc12 [Example I-326] | > 2000 | > 2000 | 23 | 38 |
| CC(C)(C)c1cc(-c2ccc(Cl)c(F)c2)nc2cc(C(=O)N3CCN(c4ccncc4)C(=O)C3(C)C)oc12 [Example I-327] | > 2000 | > 2000 | 10 | 12 |
| CC(C)(C)c1cc(-c2ccc(Cl)cc2)nc2cc(C(=O)N3CCN(c4ccncc4)C(=O)C3(C)C)oc12 [Example I-328] | > 2000 | > 2000 | 16 | 22 |
| CC(C)(C)c1cc(-c2ccc(Cl)c(F)c2)nc2cc(C(=O)N3CCN(c4ccccn4)C(=O)C3(C)C)oc12 [Example I-329] | > 2000 | > 2000 | 12 | 13 |
| CC(C)(C)c1cc(-c2ccc(Cl)cc2)nc2cc(C(=O)N3CCN(c4ccccn4)C(=O)C3(C)C)oc12 [Example I-330] | > 2000 | > 2000 | 21 | 32 |
| CC(C)(C)c1cc(-c2ccc(Cl)c(F)c2)nc2cc(C(=O)N3CCN(c4ncc(-c5nnn[nH]5)cn4)CC3(C)C)oc12 [Example I-331] | > 2000 | 1800 | 1.3 | 2.8 |
| Cc1cncc(N2CCN(C(=O)c3cc4nc(-c5ccc(Cl)c(F)c5)cc(C(C)(C)C)c4o3)C(C)(C)C2=O)n1 [Example I-334] | > 2000 | > 2000 | 1.4 | 1.6 |
| CC1(C)CCC(c2cc(C(C)(C)C)c3oc(C(=O)N4CCN(C(=O)CC5(C(=O)O)CCC5)CC4(C)C)cc3n2)CC1 [Example I-338] | > 2000 | > 2000 | 0.3 | 0.5 |
| Cc1ccnc(N2CCN(C(=O)c3cc4nc(C5CCC(C)(C)CC5)cc(C(C)(C)C)c4o3)C(C)(C)C2=O)n1 [Example I-339] | > 2000 | > 2000 | 1.3 | 3.1 |
| Cc1ccnc(N2CCN(C(=O)c3cc4nc(-c5ccc(Cl)cc5)cc(C(C)(C)C)c4o3)C(C)(C)C2=O)n1 [Example I-340] | > 2000 | > 2000 | 0.9 | 1.7 |
| CC(C)(C)c1cc(-c2ccc(Cl)cc2)nc2cc(C(=O)N3CCN(c4ncc(-c5nnn[nH]5)cn4)CC3(C)C)oc12 [Example I-341] | 1700 | > 2000 | 1.6 | 4.4 |
| CC(C)(C)c1cc(-c2ccc(Cl)c(F)c2)nc2cc(C(=O)N3CCN(c4cccc(-c5nnn[nH]5)n4)CC3(C)C)oc12 [Example I-344] | > 2000 | > 2000 | 0.1 | 0.2 |
| CC1(C)CCC(c2cc(C(C)(C)C)c3oc(C(=O)N4CCN(c5cccc(-c6nnn[nH]6)n5)CC4(C)C)cc3n2)CC1 [Example I-345] | > 2000 | > 2000 | 0.3 | 0.7 |
| CC1(C)CCC(c2cc(C(C)(C)C)c3oc(C(=O)N4CCN(c5ncc(-c6nnn[nH]6)cn5)CC4(C)C)cc3n2)CC1 [Example I-346] | 1000 | 2100 | 1.6 | 4.1 |
| CC(C)(C)c1cc(-c2ccc(Cl)cc2)nc2cc(C(=O)N3CCN(c4ccnnc4)CC3(C)C)oc12 [Example I-349] | > 2000 | > 2000 | 80 | 75 |
| CC(C)(C)c1cc(-c2ccc(Cl)cc2)nc2cc(C(=O)N3CCN(c4cccc(-c5nnn[nH]5)n4)CC3(C)C)oc12 [Example I-350] | > 2000 | > 2000 | 0.08 | 0.3 |
| CC1(C)CCC(c2cc(C(C)(C)C)c3oc(C(=O)N4CCN(C(=O)CCC(C)(C)C(=O)O)CC4(C)C)cc3n2)CC1 [Example I-354] | > 2000 | > 2000 | 0.3 | 0.4 |
